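Five compound concentrations were applied to cells in 96-well plates for 48 hours; endpoints were derived by simple linear interpolation of the resulting dose-response curve. GI50 marks 50% less growth.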 Calls of active or inactive are those of the source. No stated cut-off is given here; in the data, active = GI50 up to about 1.1 µM and inactive = higher.
How the values were obtained:
Assay in all cases: NCI-60 cell line screen, 48 h
[1] = test system: SNB-75
[2] = test system: SF-268
[3] = test system: IGROV-1
[4] = test system: SK-MEL-5
[5] = test system: SF-295
[6] = test system: ACHN
[7] = test system: 786-0
[8] = test system: OVCAR-4
[9] = test system: MOLT-4
[10] = test system: EKVX
[11] = test system: KM12
[12] = test system: SK-OV-3
[13] = test system: SK-MEL-2
[14] = test system: HL-60
[15] = test system: Malme-3M
[16] = test system: UACC-62
[17] = test system: MDA-MB-231
[18] = test system: DU-145
[19] = test system: MDA-MB-435

Measured: GI50

CCCc1ccc(/N=C\c2cc(OC)c(OC)c(OC)c2)cc1
inactive: [1] > 100 µM | [2] > 100 µM | [3] > 100 µM | [4] > 100 µM | [5] > 100 µM | [6] > 100 µM | [7] > 100 µM | [8] > 100 µM | [9] > 100 µM | [10] > 100 µM | [11] > 100 µM | [12] > 100 µM | [13] > 100 µM | [14] 21.5 µM | [15] > 100 µM | [16] > 100 µM

c1ccc2c(c1)CC1=C(O2)c2ccccc2OC1
inactive: [2] 29.4 µM | [3] 23.1 µM | [4] 22.4 µM | [5] 39.1 µM | [6] 34.2 µM | [7] 16.6 µM | [8] 21.1 µM | [9] 23.9 µM | [10] 16.1 µM | [11] 29.1 µM | [12] > 100 µM | [17] 31.8 µM | [18] 35.9 µM | [13] 23.5 µM | [15] 52.6 µM | [16] 26.2 µM | [19] 27.3 µM

Cc1cc(Cl)ccc1NC(=O)C(=O)C(C(=O)c1ccccc1)C1OC(=O)c2ccccc21 (configuration not stated)
inactive: [1] > 100 µM | [2] > 100 µM | [3] > 100 µM | [4] > 100 µM | [5] > 100 µM | [6] > 100 µM | [7] > 100 µM | [8] > 100 µM | [9] > 100 µM | [10] > 100 µM | [11] > 100 µM | [12] > 100 µM | [13] > 100 µM | [14] > 100 µM | [15] > 100 µM | [16] > 100 µM

O=C(/N=N/C(=O)OCc1ccccc1)OCc1ccccc1
inactive: [1] 42.1 µM | [2] 96.4 µM | [3] > 100 µM | [4] > 100 µM | [5] 35 µM | [6] 76.4 µM | [7] > 100 µM | [8] 66.1 µM | [9] 31.9 µM | [10] > 100 µM | [11] 88.3 µM | [12] > 100 µM | [13] > 100 µM | [14] 43.7 µM | [15] > 100 µM | [16] > 100 µM

C=C1C(=O)OC2C1C(OC(=O)/C(C)=C\C)CC1(CO1)C1C(O)C=C(C)C21O (configuration not stated)
inactive: [1] 10.6 µM | [2] 2.64 µM | [3] 14.5 µM | [4] 4.28 µM | [5] 20.8 µM | [6] 3.16 µM | [7] 2.96 µM | [8] 7.78 µM | [9] 2 µM | [10] 12.8 µM | [11] 11.5 µM | [12] 16.7 µM | [13] 3.72 µM | [14] 3.04 µM | [15] 2.74 µM | [16] 1.74 µM

CC1(C)OCC2OC3([C@H](O)CCO)OC(C)(C)OC3C2O1 (some centres not stated)
inactive: [1] > 100 µM | [3] > 100 µM | [4] > 100 µM | [5] > 100 µM | [6] > 100 µM | [7] > 100 µM | [8] > 100 µM | [9] > 100 µM | [10] > 100 µM | [11] > 100 µM | [17] > 100 µM | [18] > 100 µM | [13] > 100 µM | [16] > 100 µM | [19] > 100 µM

CC(C)=CCC/C(C)=C/CC/C(C)=C/C1CCC(=O)C1(C)C (configuration not stated)
inactive: [1] 28.5 µM | [2] 17.1 µM | [3] 19.1 µM | [4] 15.1 µM | [5] 18.3 µM | [6] 16.6 µM | [7] 17.9 µM | [8] 24.9 µM | [9] 22.8 µM | [10] 19.7 µM | [11] 16.3 µM | [12] 30.3 µM | [13] 17.4 µM | [14] 11.6 µM | [15] 18.3 µM | [16] 19.1 µM
